# Assay results reported in US6878751B1, “Administration of resveratrol to treat inflammatory respiratory disorders” (Imperial College of Science Technology and Medicine, priority 2000, dated 2005).
# Key:
# [1] = test system: CRE dependent transcription; assay: CRE luciferase reporter in stably transfected A549 cells; assay type: cell-based, human
# Description: (§1) The expression of inflammatory genes was then evaluated in cells transformed with luciferase reporter genes containing sites for transcription factors (Tf, Tfs). The A549 cells were stably transfected by routine methods with luciferase reporters containing the transcription factors NF-κB, TRE (AP-1, TPA responsive element) and CRE (cAMP responsive element). Luciferase activity of cell lysates resuspended in […] cell lysis buffer mixed (40 mml resuspended lysate: 40 mml assay reagent) was measured using the Luciferase Assay System (Promega), with emitted light measured by a Turner DesignsTD-20/20 luminometer (Steptech Instruments Ltd., Stevenage, U.K.)
# Patients with asthma = assay: Oral resveratrol clinical evaluation in asthma (Example 3); assay type: in vivo, human; details: oral, 200, 2000 or 3000 mg/day, about six months
# Description: Resveratrol is evaluated clinically for efficacy in treating asthma. The methods of the following references are generally used in the evaluation of asthmatic disease: Wohl et al. (2000) N. Engl. J. Med. 343(15):1113-4; Agertoft et al. (2000) N. Engl. J. Med. 343(15):1064-9. Patients with asthma are treated once or more per day with gelatin capsules containing resveratrol. Patients are divided randomly and blindly into four approximately equal groups that receive either 0 (placebo), 200, 2000, or 3000 mg/day resveratrol for about six months in oral doses of 0, 50, 500, or 750 mg administered 4 times daily for about six months. Patients are medically monitored for clinical symptoms of asthma throughout the study, including frequency and severity of acute asthma attacks. […] In addition exhaled nitric oxide (NO) and carbon monoxide (CO) levels may be measured at more frequent intervals, such as every other week. Forced expiratory volume (FEV) and forced inspiratory volume (FIV) are also evaluated to measure airway patency as a direct measure of clinical morbidity and to determine correlation the histopathologic and other indicators of clinical disease, such as exhaled NO Immunhistopathologic examination of lung tissue biopsy samples taken at the same intervals as the blood samples are also examined for histopathologic evidence of extent and histology of inflammation.
# [2] = test system: TRE dependent transcription; assay: TRE (AP-1) luciferase reporter in stably transfected A549 cells; assay type: cell-based, human
# Description: as §1
# [3] = test system: Smokers with no disease or mild COPD; assay: Oral resveratrol for chemoprevention of COPD in smokers (Example 10); assay type: in vivo, human; details: 2 to 5 years
# Description: Resveratrol is evaluated clinically for efficacy in chemoprevention of COPD in smokers. The study is generally patterned after the asthma studies with modifications appropriate to the clinical and histopathologic evaluation of COPD disease, and the references listed in the preceding examples may be applied as appropriate. Smokers with no disease or mild COPD are treated once or more per day with gelatin capsules containing resveratrol. The population of smokers are subdivided into subpopulations: clinically and histopathologically disease free, clinically asymptomatic with histopathologic inflammation and mildly COPD symptomatic, meaning some chronic bronchitis but no pulmonary impairment causing hypoxemia or acidosis. Each subpopulation is divided randomly and blindly into four approximately equal groups that receive either 0 (placebo), 200, 2000, or 3000 mg/day resveratrol […] in oral doses of 0, 50, 500, or 750 mg administered 4 times daily for 2 to 5 years. […]
# Patients are medically monitored for clinical symptoms of COPD throughout the study, including onset of symptoms and frequency and severity thereof. […] Forced expiratory volume (FEV) and forced inspiratory volume (FIV) are also evaluated to measure airway patency as a direct measure of clinical morbidity and to determine correlation the histopathologic and other indicators of clinical disease. […]
# [4] = test system: GM-CSF release, A549 cells; assay: GM-CSF release (sandwich assay) in IL-1β stimulated A549 cells; assay type: cell-based; details: Homo sapiens, 1 ng/ml IL-1β, read-out: EC50 for inhibition of GM-CSF release
# Description: The human airway epithelial cell line A549 may be employed to study resveratrol inhibition of the release of IL-8 (interleukin 8) and GM-CSF (granulocyte macrophage-colony stimulating factor) by a 1 ng/ml stimulation with IL-1β (interleukin 1β). A549 cells, BEAS-2B cells and 16HBE-16o^− cells were stimulated with 1 ng/ml levels of IL-1β in the presence of resveratrol.
# Cells, including the A549 cells, were cultured in Dulbecco's modified Eagle's medium (DMEM) 10% (v/v) fetal calf serum (FCS), 100 μg/ml penicillin and 100 μg/ml streptomycin. IL-8 release was measured by commercially available ELISA kit (R&D Systems).
# GM-CSF release was measured in culture media by sandwich assay employing rat monoclonal capture antibody (Ab, mAb) against GM-CSF and a biotinylated rat anti-human GM-CSF mAb. The rat capture mAb against GM-CSF, diluted 1:500 in 0.1 M NaHCO3, was coated overnight at 4° C. onto 96 well plates. After washing, with wash buffer (NaCl: 145 mM, KCl: 4 mM, NaH2PO4: 10 mM, Tween-20: 0.05% (v/v), pH: 7.4) the plates were blocked by application of 10% (v/v) FCS at room temperature for 2 hours. After washing, samples and standards were added to the well plates and incubated at 4° C. overnight. […]
smiles,measurement,setting,value
"Oc1ccc(/C=C/c2cc(O)cc(O)c2)cc1 [Resveratrol, 3,5,4′-trihydroxystilbene]",extent of inhibition of CRE dependent transcription,[1],91%
same,EC50,"[1]; Homo sapiens, read-out: EC50 for inhibition of CRE dependent transcription",30 ± 17 µM
same,efficacy in treating asthma,Patients with asthma,effective for treating asthma
same,extent of inhibition of TRE dependent transcription,[2],85%
same,EC50,"[2]; Homo sapiens, read-out: EC50 for inhibition of TRE dependent transcription",7 ± 4 µM
same,side effects,"[3]; oral, relative to those expected from steroid administration",without significant side effects
same,efficacy in chemoprevention of COPD in smokers,"[3]; oral, 200, 2000 or 3000 mg/day",effective for chemoprevention of COPD in smokers
same,EC50,[4],22 ± 8 µM
